Measurements: patent US9096536B2, “Asymmetrically substituted anthrapyridazone derivatives as cytostatics” (BS-154 S.P. ZO.O., priority 2011, dated 2015)
In brackets after ≈: the same amount, converted by molar mass. Read-outs that look alike come from different tables or passages of the source.

Columns and labels:
[1] = test system: HL60/DX; assay: Substrate properties: activity against HL60/DX in the presence of BSO (MRP pump inhibitor); type: cell-based, human; conditions: FIG. 3
Text: Activity in vitro against human promyelolytic leukemia HL60/DX in the presence of D-L-buthionine-(S,R)-sulphoximine (BSO), MRP pump inhibitor.

[2] = test system: HT29/MIT; assay: Cytostatic activity in vitro, mitoxantrone-induced resistant subline HT29/MIT; type: cell-based, human; conditions: for IC50: 72 h continuous exposure; for RI resistance index HT29/MIT: IC50(resistant cells)/IC50(sensitive cells), HT29/MIT vs HT29
Text: (§1) Table 7 presents activity in vitro of selected anthrapyridazone derivatives according to the invention towards sensitive and resistant (MDR-1 type) cell line of human colon adenocarcinoma with resistance induced by mitoxantrone.

[3] = test system: human prostate cancer cell line LNCaP; assay: Cytostatic activity in vitro, prostate cancer LNCaP; type: cell-based; conditions: 72 h continuous exposure
Text: (§2) Table 5 presents activity in vitro of anthrapiridazone derivatives towards three cell lines of prostate cancer, naturally multidrug resistant, in comparison with references doxorubicin, mitoxantrone and taxol.

[4] = test system: human promyelocytic leukemia cell line HL-60; assay: Cytostatic activity in vitro, HL-60 sensitive line; type: cell-based; conditions: read-out: HL60 IC50
Text: (§3) Tables 3 and 4 show cytostatic activity in vitro of 2,6-disubstituted and 2- or 6-monosubstituted (Tab.3), and of 2,5-disubstituted-(Tab.-4) tetracyclic anthrapyridazone derivatives using leukemia cell line HL-60 and the resistant cell sublines with resistance induced by vincristine (MDR-1) or doxorubicin (MRP). Activity of compounds is differentiated depending on their structure, but in all cases resistance indexes are more advantageous in comparison with reference compounds: doxorubicin and mitoxantrone.

[5] = test system: HL60/VINC; assay: Substrate properties: activity against HL60/VINC in the presence of cyclosporine A (MDR-1 pump inhibitor); type: cell-based, human; conditions: FIG. 2
Text: FIG. 2 shoes experimentally determined substrate properties of selected antgraoyridazone derivatives vs. Doxorubicin and Mitroxantrone. Activity in vitro against human promyelacytic leykemia cell line HL60/VINC in the presence of cyclosporine A (MDR-1 pump inhibitor).

[6] = test system: human colon adenocarcinoma HT29; assay: Cytostatic activity in vitro, colon adenocarcinoma HT29; type: cell-based; conditions: 72 h continuous exposure
Text: as §1

[7] = test system: MCF7/DX; assay: Cytostatic activity in vitro, resistant breast cancer subline MCF7/DX (MDR-1); type: cell-based, human; conditions: for IC50: 72 h continuous exposure; for RI resistance index MCF7/DX: IC50(resistant cells)/IC50(sensitive cells), MCF7/DX vs MCF7
Text: (§4) It should be mentioned that resistance index is above one order of magnitude better in comparison with doxorubicin and mitoxantrone.

[8] = test system: HL60/DX; assay: Cytostatic activity in vitro, doxorubicin-induced resistant subline (MRP); type: cell-based, human; conditions: for RI resistance index HL60/DX: IC50(resistant cells)/IC50(sensitive cells)
Text: as §3

[9] = test system: CT-DNA; assay: Interaction with isolated CT-DNA, fluorescence competition with ethidium bromide; type: binding; conditions: for IC50: 50% decrease in fluorescence intensity of DNA-bromide ethydine complex; for Kapp relative constant of DNA-compound bonding: Kapp = (1.26/C50) × KEtBr, KEtBr = 10^7M
Text: It could be supposed that this property explains cytostatic activity of compounds. In Table 9 there are presented quantitative data on the affinity to DNA of tested compounds using the fluorescence method and competitive affinity to DNA of bromine ethydine and tested compounds.

[10] = test system: human prostate cancer cell line DU145; assay: Cytostatic activity in vitro, prostate cancer DU145; type: cell-based; conditions: 72 h continuous exposure
Text: as §2

[11] = test system: human breast cancer cell line MCF7; assay: Cytostatic activity in vitro, breast cancer MCF7; type: cell-based; conditions: 72 h continuous exposure
Text: as §4

[12] = test system: human prostate cancer cell line PC3; assay: Cytostatic activity in vitro, prostate cancer PC3; type: cell-based; conditions: 72 h continuous exposure
Text: as §2

[13] = test system: HL60/VINC; assay: Cytostatic activity in vitro, vincristine-induced resistant subline (MDR-1); type: cell-based, human; conditions: for RI resistance index HL60/VINC: HL60/VINC vs HL60, 72 h
Text: as §3

[14] = test system: uterus cancer MES-SA; assay: Cytostatic activity, panel: uterus cancer MES-SA; type: cell-based; conditions: 72 h continuous exposure
Text: (§5) Tables 8A and 8B present cytostatic activity in vitro of selected anthrapyridazone derivatives according to the invention against panel of sensitive and resistant cell lines, in comparison with doxorubicin, cisplatine and mitoxantrone.

[15] = test system: LoVo/DX; assay: Cytostatic activity, panel: LoVo/DX resistant to doxorubicin; type: cell-based; conditions: for RI LoVo LoVo/DX: IC50(resistant cells)/IC50(sensitive cells)
Text: as §5

[16] = test system: MES-SA/DX5; assay: Cytostatic activity, panel: MES-SA/DX5 resistant to doxorubicin; type: cell-based; conditions: for RI MES-SA MES-SA/DX5: IC50(resistant cells)/IC50(sensitive cells)
Text: as §5

[17] = test system: colon cancer LoVo; assay: Cytostatic activity, panel: colon cancer LoVo; type: cell-based; conditions: 72 h continuous exposure
Text: as §5

[18] = test system: promyelolytic leukemia HL-60; assay: Cytostatic activity, panel: promyelolytic leukemia HL-60; type: cell-based; conditions: 72 h continuous exposure
Text: as §5

[19] = test system: lymphoblastic leukemia CCRF-CEM; assay: Cytostatic activity, panel: lymphoblastic leukemia CCRF-CEM; type: cell-based; conditions: 72 h continuous exposure
Text: as §5

[20] = test system: CEM/C2; assay: Cytostatic activity, panel: CEM/C2 resistant to camptotecine; type: cell-based
Text: as §5

[21] = test system: HL60/MX2; assay: Cytostatic activity, panel: HL60/MX2 resistant to mitoxantrone; type: cell-based
Text: as §5

[22] = 50% inhibition of cell growth after 72 h continuous exposure
[23] = IC50(resistant cells)/IC50(sensitive cells)
[24] = Homo sapiens, HL-60, 96 h continuous exposure

IC50 [3] [nM]	IC50 [4, 22] [nM]	IC50 ([8]; 72 h continuous exposure) [nM]	IC50 [9] [nM]	IC50 [10] [nM]	IC50 [12] [nM]	IC50 ([13]; 72 h continuous exposure) [nM]	SMILES	Effect of MRP protein inhibitor (BSO) on cytostatic activity [1]	RI resistance index HT29/MIT [2]	Effect of blocking MDR-1 pump with cyclosporine A (CSA) on cytostatic activity [5]	RI resistance index MCF7/DX [7]	RI resistance index HL60/DX ([8]; HL60/DX vs HL60, 72 h)	Kapp relative constant of DNA-compound bonding [9] [M⁻¹]	RI resistance index HL60/VINC [13, 23]	RI LoVo LoVo/DX [15]	RI MES-SA MES-SA/DX5 [16]	also measured
5.5 ± 0.7	1.3 ± 0.1	564 ± 72	260 ± 20	11.3 ± 2.6	37.6 ± 8.1	14.2 ± 1.7	CN(C)CCn1nc2c3c(c(NCCN)ccc3c1=O)C(=O)c1ccccc1-2 [BS-121, 2-[2-(Dimethylamino)ethyl]-6-[2-(aminoethyl)amino)-2,7-dihydro-3H-dibenzo[de,h]cynnoline-3,7-dione]	only partially	4.1	does not essentially affect the cytostatic activity	1.1	433.8	4.83e+07	10.9			IC50 [2]: 39.4 ± 4.3 nM; IC50 [6]: 9.7 ± 1 nM; IC50 [7]: 45.3 ± 8.1 nM; IC50 [11]: 39.6 ± 0.8 nM
			80				COc1cccc2c1C(=O)c1c(O)c3c(c(O)c1C2=O)C[C@@](O)(C(=O)CO)C[C@@H]3O[C@H]1C[C@H](N)[C@H](O)[C@H](C)O1 [Doxorubicin, reference compound]	essentially influences the cytostatic activity	1.5	has positive influence on maintaining the cytostatic activity	49.1	592.8	1.5e+08	55.1	54.7	181.2	IC50 ([14]; Homo sapiens, MES-SA): 0.0705 µg/mL (≈ 0.13 µM); IC50 ([2]; Homo sapiens, HT-29): 97.1 ± 20.9 nM; IC50 ([3]; Homo sapiens, LNCaP): 22.4 ± 1.9 nM; IC50 ([4]; Homo sapiens, HL-60, 50% inhibition of cell growth after 72 h continuous exposure): 16 ± 1 nM; IC50 [4, 24]: 9.5 ± 2 nM; IC50 ([15]; LoVo/DX, 72 h continuous exposure): 12.1 µg/mL (≈ 22.2 µM); IC50 ([6]; Homo sapiens, HT-29): 64.5 ± 19.2 nM; IC50 ([7]; Homo sapiens, MCF7/DX): 932 ± 145 nM; IC50 ([8]; Homo sapiens, HL-60, 72 h continuous exposure): 9480 ± 1300 nM; IC50 [8, 24]: 1860 ± 143 nM; RI resistance index HL60/DX ([8]; 96 h): 195.7; IC50 ([16]; Homo sapiens, MES-SA/Dx5, 72 h continuous exposure): 13.6 µg/mL (≈ 25 µM); IC50 ([10]; Homo sapiens, DU-145): 38 ± 7.6 nM; IC50 ([17]; Homo sapiens, LoVo): 0.224 µg/mL (≈ 0.413 µM); IC50 ([11]; Homo sapiens, MCF7): 19 ± 3.3 nM; IC50 ([12]; Homo sapiens): 106 ± 7 nM; IC50 ([13]; Homo sapiens, HL60/vinc, 72 h continuous exposure): 882 ± 68 nM; IC50 ([13]; Homo sapiens, HL60/vinc, 96 h continuous exposure, read-out: HL60VINC IC50): 734 ± 72 nM; RI resistance index HL60VINC ([13]; IC50(resistant cells)/IC50(sensitive cells), 96 h): 77.3
26.2 ± 7.2	19 ± 4	446 ± 100	310 ± 10	71.4 ± 21.6	144 ± 32.7	116 ± 28	CCN(CC)CCNc1ccc2c(=O)n(CCN(C)C)nc3c2c1C(=O)c1ccccc1-3 [Compound C-155, 2-[2-(Dimethylamino)ethyl]-6-{[(2-diethylamino)ethyl]amino}-2,7-dihydro-3H-dibenzo[de,h]cynnoline-3,7-dione]					23.5	4.02e+07	6.1			
50.7 ± 10.2	13 ± 1	3240 ± 558	1840 ± 160	36.7 ± 7.4	106 ± 5.7	421 ± 24	CC(=O)NCCCNc1ccc2c(=O)n(CCN(C)C)nc3c2c1C(=O)c1ccccc1-3 [PDZ-13, 2-[2-(Dimethylamino)ethyl]-6-[(3-acetylaminopropyl)amino]-2,7-dihydro-3H-dibenzo [de,h]cynnoline-3,7-dione]					249.2	6.8e+06	32.4			
							N.N.[Cl][Pt][Cl] [Cisplatina]								1.6	1.5	IC50 MES-SA [14]: 2.26 ± 0.58 µg/mL; IC50 HL60 [18]: 0.22 ± 0.12 µg/mL; IC50 CCRF-CEM [19]: 1.44 ± 0.49 µg/mL; IC50 LoVo/DX ([15]; 72 h continuous exposure): 2.51 ± 0.38 µg/mL; IC50 MES-SA/DX5 ([16]; 72 h continuous exposure): 3.29 ± 0.15 µg/mL; IC50 LoVo [17]: 1.59 ± 0.31 µg/mL; IC50 CEM/C2 ([20]; 72 h continuous exposure): 0.44 ± 0.19 µg/mL; RI CCRF-CEM CEM/C2 [20, 23]: 0.3; IC50 HL60/MX2 ([21]; 72 h continuous exposure): 0.56 ± 0.30 µg/mL; RI HL60 HL60/MX2 [21, 23]: 2.5
